Where two headings read alike, the source gives them in different places.
Tests used:
[1] = cited from earlier work
[2] = molecular target: T1, UGT2B7 (Homo sapiens, UniProt P16662); assay: Glucuronidation by recombinant human UGT2B7; settings: UGT2B7, substrate 10 μM
T1 sequence (P16662 24-529): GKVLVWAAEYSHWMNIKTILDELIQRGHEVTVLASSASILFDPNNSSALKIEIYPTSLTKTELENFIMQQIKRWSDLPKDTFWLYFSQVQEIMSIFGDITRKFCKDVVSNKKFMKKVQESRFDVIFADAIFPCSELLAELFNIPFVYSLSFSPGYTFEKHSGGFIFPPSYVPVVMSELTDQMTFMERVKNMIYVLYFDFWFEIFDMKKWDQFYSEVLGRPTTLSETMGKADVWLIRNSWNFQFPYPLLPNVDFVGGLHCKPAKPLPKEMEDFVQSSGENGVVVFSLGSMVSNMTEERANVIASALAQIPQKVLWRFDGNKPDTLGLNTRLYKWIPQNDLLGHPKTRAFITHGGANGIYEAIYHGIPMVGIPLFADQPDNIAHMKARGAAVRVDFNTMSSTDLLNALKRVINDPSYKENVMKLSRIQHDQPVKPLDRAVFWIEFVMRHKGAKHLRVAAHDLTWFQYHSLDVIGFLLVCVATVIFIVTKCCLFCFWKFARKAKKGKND

[3] = tested on: UGT 1A1, 1A3, 1A6, 1A7, 1A8, 1A9, 1A10 and 2B7; assay: Glucuronidation by the panel of 8 recombinant human UGT isoforms; settings: substrate 10 μM
[4] = molecular target: T2, UGT1A1 (Homo sapiens, UniProt P22309); settings: 10 μM, pH 7.4
T2 sequence (P22309 26-533): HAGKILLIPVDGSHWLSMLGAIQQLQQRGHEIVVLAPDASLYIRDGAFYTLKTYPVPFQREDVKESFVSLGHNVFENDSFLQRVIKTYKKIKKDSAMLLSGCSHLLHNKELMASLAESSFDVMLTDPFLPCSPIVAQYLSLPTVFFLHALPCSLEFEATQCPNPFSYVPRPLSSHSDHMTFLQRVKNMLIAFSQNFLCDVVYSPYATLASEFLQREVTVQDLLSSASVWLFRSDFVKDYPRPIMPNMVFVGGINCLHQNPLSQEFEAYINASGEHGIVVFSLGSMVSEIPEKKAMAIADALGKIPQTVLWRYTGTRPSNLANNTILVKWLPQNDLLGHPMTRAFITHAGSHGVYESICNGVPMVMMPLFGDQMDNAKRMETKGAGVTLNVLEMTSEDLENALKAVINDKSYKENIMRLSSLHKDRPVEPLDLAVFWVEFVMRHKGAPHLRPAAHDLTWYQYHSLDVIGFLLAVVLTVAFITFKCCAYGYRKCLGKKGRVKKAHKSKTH

[5] = molecular target: T3, UGT1A3 (Homo sapiens, UniProt P35503); settings: pH 7.4
T3 sequence (P35503 29-534): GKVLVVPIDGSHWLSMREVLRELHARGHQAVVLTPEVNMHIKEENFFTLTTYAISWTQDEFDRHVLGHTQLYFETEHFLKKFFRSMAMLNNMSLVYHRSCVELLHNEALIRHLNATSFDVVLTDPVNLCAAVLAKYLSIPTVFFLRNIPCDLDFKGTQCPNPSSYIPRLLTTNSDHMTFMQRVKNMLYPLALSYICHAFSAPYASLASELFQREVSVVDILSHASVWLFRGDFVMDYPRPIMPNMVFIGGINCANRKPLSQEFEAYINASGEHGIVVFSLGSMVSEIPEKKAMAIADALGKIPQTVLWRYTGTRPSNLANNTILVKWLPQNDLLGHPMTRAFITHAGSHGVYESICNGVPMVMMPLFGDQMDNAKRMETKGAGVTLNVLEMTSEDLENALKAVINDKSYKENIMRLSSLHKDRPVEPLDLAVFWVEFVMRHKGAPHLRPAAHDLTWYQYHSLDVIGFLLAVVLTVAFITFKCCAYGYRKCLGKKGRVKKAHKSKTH

[6] = molecular target: T4, UGT1A9 (Homo sapiens, UniProt O60656); settings: pH 7.4
T4 sequence (O60656 26-530): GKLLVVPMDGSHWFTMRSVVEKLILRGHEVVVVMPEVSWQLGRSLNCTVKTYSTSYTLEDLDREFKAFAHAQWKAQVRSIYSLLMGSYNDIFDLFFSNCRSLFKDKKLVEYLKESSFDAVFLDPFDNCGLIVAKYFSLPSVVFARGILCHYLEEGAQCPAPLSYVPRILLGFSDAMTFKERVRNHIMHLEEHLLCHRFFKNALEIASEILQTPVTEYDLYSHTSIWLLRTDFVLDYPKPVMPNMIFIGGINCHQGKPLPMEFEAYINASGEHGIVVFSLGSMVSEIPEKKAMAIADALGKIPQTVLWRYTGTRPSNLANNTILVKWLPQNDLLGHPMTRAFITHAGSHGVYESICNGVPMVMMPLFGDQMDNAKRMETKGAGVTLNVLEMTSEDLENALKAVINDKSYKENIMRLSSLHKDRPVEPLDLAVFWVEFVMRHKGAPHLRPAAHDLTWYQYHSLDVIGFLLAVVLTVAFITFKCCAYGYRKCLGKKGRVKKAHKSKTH

[7] = molecular target: T5, UGT1A10 (Homo sapiens, UniProt Q9HAW8); settings: 10 μM, pH 7.4
T5 sequence (Q9HAW8 26-530): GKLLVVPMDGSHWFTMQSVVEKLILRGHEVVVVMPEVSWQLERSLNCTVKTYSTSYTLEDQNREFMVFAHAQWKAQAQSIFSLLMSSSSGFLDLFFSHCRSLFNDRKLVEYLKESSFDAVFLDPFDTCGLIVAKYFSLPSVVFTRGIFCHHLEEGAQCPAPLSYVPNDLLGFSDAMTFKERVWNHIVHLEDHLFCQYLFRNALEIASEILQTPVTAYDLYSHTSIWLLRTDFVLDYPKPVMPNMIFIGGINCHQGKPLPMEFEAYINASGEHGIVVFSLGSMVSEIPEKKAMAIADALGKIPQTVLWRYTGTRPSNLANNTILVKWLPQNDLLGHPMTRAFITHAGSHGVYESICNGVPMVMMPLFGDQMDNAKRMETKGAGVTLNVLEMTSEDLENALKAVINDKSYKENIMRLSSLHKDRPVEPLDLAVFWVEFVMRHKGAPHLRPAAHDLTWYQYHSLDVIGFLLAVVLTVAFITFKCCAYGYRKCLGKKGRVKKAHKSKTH

[8] = molecular target: T1, UGT2B7; settings: 10 μM, pH 7.4

Hydroxyl positions glucuronidated [2] | Hydroxyl positions glucuronidated [4] | Degree of regiospecificity (major glucuronide in bracket) ([5]; 2.5 μM) | Hydroxyl positions glucuronidated ([5]; 10 μM) | Degree of regiospecificity (major glucuronide in bracket) ([6]; 2.5 μM) | Hydroxyl positions glucuronidated ([6]; 10 μM) | SMILES | Predominant form in plasma ([1]; after oral intake in human) | Glucuronidation and regiospecificity across the 8 UGT isoforms [3] | Hydroxyl positions glucuronidated [7] | Hydroxyl positions glucuronidated [8] | Glucuronide predominantly formed ([1]; human volunteers)
glucuronidated only 7-O and 4’-O | – | – | – | – | – | O=c1c(O)c(-c2ccc(O)cc2)oc2cc(O)cc(O)c12 [5,7,4'THFnol, 3,5,7,4’-tetrahydroxyflavone] | 3-O-glucuronide of kaempferol was found to be the predominant form in plasma | 5-O position was not significantly glucuronidated by any isoform | – | – | –
– | glucuronidated 7-O position only | Dominant (7-O) | glucuronidated 7-O position only | Dominant (7-O) | glucuronidated 7-O position only | O=c1cc(-c2ccccc2)oc2cc(O)cc(O)c12 [5,7DHF, 5,7-dihydroxyflavone] | – | – | glucuronidated both 7-O and 5-O positions | glucuronidated both 7-O and 5-O positions | predominantly form 7-O-glucuronide
